Among the data in US10047075B2, “Pyridines and pyrimidines and use thereof” (Purdue Pharma L.P., priority 2014, dated 2018) are IC50 values, retold here.

Structures are written as SMILES. Some results are limits rather than exact numbers.

The target of the first assay is human Nav1.7 (Homo sapiens, UniProt Q15858). The assay is described as follows: FLIPR or FLIPR TETRA sodium dye assay with KCl and test article pre-incubation (CoroNa Green, veratridine + scorpion venom). The assay is classed as cell-based.
human Nav1.7, sequence (Q15858 1-1977 isoform Q15858-3): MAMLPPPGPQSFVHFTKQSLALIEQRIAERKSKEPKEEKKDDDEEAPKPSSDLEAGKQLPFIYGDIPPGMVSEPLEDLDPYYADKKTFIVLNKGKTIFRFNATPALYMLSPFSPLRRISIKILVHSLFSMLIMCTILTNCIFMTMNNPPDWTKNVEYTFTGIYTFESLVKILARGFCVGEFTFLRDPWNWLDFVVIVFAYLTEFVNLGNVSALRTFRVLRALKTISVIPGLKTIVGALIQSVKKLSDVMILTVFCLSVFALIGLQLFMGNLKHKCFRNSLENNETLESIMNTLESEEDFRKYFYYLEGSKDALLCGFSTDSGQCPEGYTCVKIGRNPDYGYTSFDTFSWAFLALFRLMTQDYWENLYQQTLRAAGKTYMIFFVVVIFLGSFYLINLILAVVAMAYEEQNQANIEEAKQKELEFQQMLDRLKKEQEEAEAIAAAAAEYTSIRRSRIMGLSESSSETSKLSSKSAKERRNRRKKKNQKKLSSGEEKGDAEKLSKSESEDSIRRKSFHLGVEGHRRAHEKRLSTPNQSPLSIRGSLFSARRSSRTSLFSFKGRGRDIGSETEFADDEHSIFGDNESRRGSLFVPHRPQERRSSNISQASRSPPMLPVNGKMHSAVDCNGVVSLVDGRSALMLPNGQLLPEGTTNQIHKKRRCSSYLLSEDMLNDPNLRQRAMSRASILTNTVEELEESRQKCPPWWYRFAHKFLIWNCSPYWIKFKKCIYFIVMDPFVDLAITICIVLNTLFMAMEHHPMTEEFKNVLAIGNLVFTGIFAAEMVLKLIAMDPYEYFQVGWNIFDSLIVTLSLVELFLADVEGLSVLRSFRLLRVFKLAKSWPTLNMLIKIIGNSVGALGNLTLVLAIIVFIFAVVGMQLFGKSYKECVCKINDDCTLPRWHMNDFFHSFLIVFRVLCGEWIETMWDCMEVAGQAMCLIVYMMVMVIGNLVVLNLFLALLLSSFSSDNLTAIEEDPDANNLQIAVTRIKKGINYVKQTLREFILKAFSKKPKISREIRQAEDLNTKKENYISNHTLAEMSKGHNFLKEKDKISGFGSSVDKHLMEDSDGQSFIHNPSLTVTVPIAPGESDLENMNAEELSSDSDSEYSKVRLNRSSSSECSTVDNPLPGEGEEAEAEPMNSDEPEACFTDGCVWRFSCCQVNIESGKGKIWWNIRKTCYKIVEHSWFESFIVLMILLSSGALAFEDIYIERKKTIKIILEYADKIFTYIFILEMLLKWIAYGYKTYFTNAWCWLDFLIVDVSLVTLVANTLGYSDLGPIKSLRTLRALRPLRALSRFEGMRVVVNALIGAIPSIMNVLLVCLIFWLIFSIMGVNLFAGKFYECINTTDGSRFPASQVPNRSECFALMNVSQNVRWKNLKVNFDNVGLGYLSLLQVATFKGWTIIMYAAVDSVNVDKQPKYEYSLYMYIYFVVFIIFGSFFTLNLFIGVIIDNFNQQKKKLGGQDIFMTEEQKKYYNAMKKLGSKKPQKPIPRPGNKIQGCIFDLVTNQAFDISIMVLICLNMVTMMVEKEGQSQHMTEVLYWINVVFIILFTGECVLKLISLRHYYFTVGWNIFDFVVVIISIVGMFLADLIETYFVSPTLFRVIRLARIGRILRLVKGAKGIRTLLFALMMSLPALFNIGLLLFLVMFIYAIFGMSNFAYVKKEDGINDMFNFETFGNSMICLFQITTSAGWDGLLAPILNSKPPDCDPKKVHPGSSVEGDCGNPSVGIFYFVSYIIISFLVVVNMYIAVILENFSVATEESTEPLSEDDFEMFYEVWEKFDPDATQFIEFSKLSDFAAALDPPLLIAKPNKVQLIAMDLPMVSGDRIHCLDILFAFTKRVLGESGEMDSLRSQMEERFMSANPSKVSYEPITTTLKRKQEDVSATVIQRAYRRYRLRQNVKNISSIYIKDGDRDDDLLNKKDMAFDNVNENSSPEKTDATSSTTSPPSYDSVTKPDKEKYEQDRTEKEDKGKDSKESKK
Settings: not given
A word on the IC50: it is the concentration needed to halve the response being measured. Consider `CS(=O)(=O)N1CCN(c2ccc(C(F)(F)F)cc2)c2ccc(-c3cccc([C@H](O)CO)n3)cc2C1` [Compound 95, (S)-1-(6-(4-(methylsulfonyl)-1-(4-(trifluoromethyl)phenyl)-2,3,4,5-tetrahydro-1H-benzo[e][1,4]diazepin-7-yl)pyridin-2-yl)ethane-1,2-diol], for which the IC50 came out at 0.469 ± 0.017 µM.

The assay is the same for the next values; noted with them: recombinant human Nav1.7 in HEK293 cells.
`OC[C@@H](O)c1cccc(-c2ccc3c(c2)CCCN3Cc2ccc(C(F)(F)F)cc2)n1` [Compound 81, (S)-1-(6-(1-(4-(trifluoromethyl)benzyl)-1,2,3,4-tetrahydroquinolin-6-yl)pyridin-2-yl)ethane-1,2-diol]: the IC50 is 0.091 ± 0.025 µM. Consider `NC(=O)c1cc(CN[C@H]2CCNC2=O)nc(-c2ccc3c(c2)OCCCN3c2ccc(C(F)(F)F)cc2)n1` [Compound 72, (S)-6-(((2-oxopyrrolidin-3-yl)amino)methyl)-2-(5-(4-(trifluoromethyl)phenyl)-2,3,4,5-tetrahydrobenzo[b][1,4]oxazepin-8-yl)pyrimidine-4-carboxamide], for which the IC50 is 0.11 ± 0.022 µM. `NC(=O)c1cccc(-c2ccc3c(c2)COCCN3c2ccc(C(F)(F)F)cc2)n1` [Compound 61, 6-(1-(4-(trifluoromethyl)phenyl)-1,2,3,5-tetrahydrobenzo[e][1,4]oxazepin-7-yl)picolinamide]: the IC50 is 0.404 ± 0.036 µM. For the compound `OC[C@@H](O)c1cccc(-c2ccc3c(c2)CCCCN3C2CCC(F)(F)CC2)n1` [Compound 76, (S)-1-(6-(1-(4,4-difluorocyclohexyl)-2,3,4,5-tetrahydro-1H-benzo[b]azepin-7-yl)pyridin-2-yl)ethane-1,2-diol], the 50% inhibitory concentration (IC50) turned out to be 0.526 ± 0.034 µM. With `N#CCN1CCN(c2ccc(C(F)(F)F)cc2)c2ccc(-c3cccc(C(N)=O)n3)cc2C1` [Compound 102, 6-(4-(cyanomethyl)-1-(4-(trifluoromethyl)phenyl)-2,3,4,5-tetrahydro-1H-benzo[e][1,4]diazepin-7-yl)picolinamide], the half-inhibitory concentration (IC50) came out at 0.857 ± 0.075 µM.

`C[C@H](Nc1cc(C(N)=O)nc(-c2ccc3c(c2)OCCC3Cc2ccc(F)cc2)n1)C(N)=O` (stereo partly drawn) [Compound 112, 6-(((S)-1-amino-1-oxopropan-2-yl)amino)-2-(4-(4-fluorobenzyl)chroman-7-yl)pyrimidine-4-carboxamide]: the IC50 amounted to 5.32 ± 0.425 µM.

On to `NC(=O)c1cccc(-c2ccc3c(c2)CN(CC(O)CO)CCN3c2ccc(C(F)(F)F)cc2)n1` (stereo not shown) [Compound 109, 6-(4-(2,3-dihydroxypropyl)-1-(4-(trifluoromethyl)phenyl)-2,3,4,5-tetrahydro-1H-benzo[e][1,4]diazepin-7-yl)picolinamide], for which the IC50 amounted to 5.7 ± 0.663 µM.

`NC(=O)c1cccc(-c2ccc3c(c2)CCCN3c2ccc(C(F)(F)F)cc2)n1` [Compound 66, 6-(1-(4-(trifluoromethyl)-phenyl)-1,2,3,4-tetrahydroquinolin-6-yl)picolinamide]: the IC50 was found to be 0.913 ± 0.024 µM. Turning to `O=C1Cc2cc(-c3cccc([C@H](O)CO)n3)ccc2N1Cc1ccc(C(F)(F)F)cc1` [Compound 77, (S)-5-(6-(1,2-dihydroxyethyl)pyridin-2-yl)-1-(4-(trifluoromethyl)-benzyl)indolin-2-one], the IC50 amounted to 7.8 ± 0.691 µM. In the case of `C[C@H](Nc1cc(C(N)=O)nc(-c2ccc3c(c2)CCCCN3c2ccc(C(F)(F)F)cc2)n1)C(N)=O` [Compound 64, (S)-6-((1-amino-1-oxopropan-2-yl)amino)-2-(1-(4-(trifluoro-methyl)phenyl)-2,3,4,5-tetrahydro-1H-benzo[b]azepin-7-yl)pyrimidine-4-carboxamide], the concentration for half-maximal inhibition (IC50) worked out at 1.04 ± 0.077 µM.

As to `NC(=O)c1cccc(-c2ccc3c(c2)OCC=C3c2ccc(C(F)(F)F)cc2)n1` [Compound 69, 6-(4-(4-(trifluoromethyl)-phenyl)-2H-chromen-7-yl)picolinamide], the IC50 was 0.524 ± 0.077 µM.

For the compound `CNC(=O)CN1CCN(c2ccc(C(F)(F)F)cc2)c2ccc(-c3cccc([C@H](O)CO)n3)cc2C1` [Compound 105, (S)-2-(7-(6-(1,2-dihydroxyethyl)pyridin-2-yl)-1-(4-(trifluoromethyl)phenyl)-1,2,3,5-tetrahydro-4H-benzo[e][1,4]diazepin-4-yl)-N-methylacetamide], the 50% inhibitory concentration (IC50) came out at 0.644 ± 0.025 µM. On the same count and under the same terms, next, `C[C@H](Nc1cc(C(N)=O)nc(-c2ccc3c(c2)CCCCN3C2CCCCC2)n1)C(N)=O` [Compound 74, (S)-6-((1-amino-1-oxopropan-2-yl)amino)-2-(1-cyclohexyl-2,3,4,5-tetrahydro-1H-benzo[b]azepin-7-yl)pyrimidine-4-carboxamide]: 4.88 ± 0.47 µM; `NC(=O)c1cc(O[C@H]2CCNC2=O)nc(-c2ccc3c(c2)OCCCN3c2ccc(C(F)(F)F)cc2)n1` [Compound 82, (S)-6-((2-oxopyrrolidin-3-yl)oxy)-2-(5-(4-(trifluoromethyl)phenyl)-2,3,4,5-tetrahydrobenzo-[b][1,4]oxazepin-8-yl)pyrimidine-4-carboxamide]: 0.211 ± 0.038 µM. For the compound `C[C@H](Nc1cc(C(N)=O)nc(-c2ccc3c(c2)OC[C@H](O)[C@H]3c2ccc(C(F)(F)F)cc2)n1)C(N)=O` [Compound 71, 6-(((S)-1-amino-1-oxopropan-2-yl)amino)-2-((3R,4S)-3-hydroxy-4-(4-(trifluoromethyl)phenyl)chroman-7-yl)pyrimidine-4-carboxamide], the IC50 is more than 20 µM. On to `OC[C@@H](O)c1cccc(-c2ccc3c(c2)CCCCN3C2CCOCC2)n1` [Compound 75, (S)-1-(6-(1-(tetrahydro-2H-pyran-4-yl)-2,3,4,5-tetrahydro-1H-benzo[b]azepin-7-yl)pyridin-2-yl)ethane-1,2-diol], for which the IC50 came to 3.35 ± 0.244 µM. Still for that read-out and setting: the figure for `NC(=O)c1cccc(-c2ccc3c(c2)OCCCN3c2ccc(C(F)(F)F)cc2)n1` [Compound 65, 6-(5-(4-(trifluoromethyl)-phenyl)-2,3,4,5-tetrahydrobenzo[b][1,4]oxazepin-8-yl)picolinamide] is 0.338 ± 0.034 µM; for `N#CCN1CCN(c2ccc(C(F)(F)F)cc2)c2ccc(-c3cccc([C@H](O)CO)n3)cc2C1` [Compound 106, (S)-2-(7-(6-(1,2-dihydroxyethyl)pyridin-2-yl)-1-(4-(trifluoromethyl)phenyl)-1,2,3,5-tetrahydro-4H-benzo[e][1,4]diazepin-4-yl)acetonitrile] it is 0.581 ± 0.038 µM; for `NC(=O)c1cccc(-c2ccc3c(c2)CCN3c2ccc(C(F)(F)F)cc2)n1` [Compound 68, 6-(1-(4-(trifluoromethyl)-phenyl)indolin-5-yl)-picolinamide] it is more than 20 µM.

As for `NC(=O)c1cccc(-c2ccc3c(c2)CN(C(=O)C2CC2)CCN3c2ccc(C(F)(F)F)cc2)n1` [Compound 93, 6-(4-(cyclopropanecarbonyl)-1-(4-(trifluoromethyl)phenyl)-2,3,4,5-tetrahydro-1H-benzo[e][1,4]diazepin-7-yl)picolinamide], the half-inhibitory concentration (IC50) was more than 20 µM. For `NC(=O)c1cccc(-c2ccc3c(c2)CCCCN3c2ccc(C(F)(F)F)cc2)n1` [Compound 58, 6-(1-(4-(trifluoromethyl)phenyl)-2,3,4,5-tetrahydro-1H-benzo[b]azepin-7-yl)picolinamide], the IC50 is 0.357 ± 0.015 µM. For `CC(=O)N1CCN(C2CCCCC2)c2ccc(-c3cccc([C@H](O)CO)n3)cc2C1` [Compound 94, (S)-1-(1-cyclohexyl-7-(6-(1,2-dihydroxyethyl)pyridin-2-yl)-1,2,3,5-tetrahydro-4H-benzo[e][1,4]diazepin-4-yl)ethan-1-one], the IC50 was determined as 8.8 ± 1.92 µM. The same measure, in the same setting: next, `CCNC(=O)N1CCN(c2ccc(C(F)(F)F)cc2)c2ccc(-c3cccc([C@H](O)CO)n3)cc2C1` [Compound 97, (S)-7-(6-(1,2-dihydroxyethyl)pyridin-2-yl)-N-ethyl-1-(4-(trifluoromethyl)phenyl)-1,2,3,5-tetrahydro-4H-benzo[e][1,4]diazepin-4-carboxamide]: 2.62 ± 0.1 µM. For `CN(C)CC(=O)N1CCN(c2ccc(C(F)(F)F)cc2)c2ccc(-c3cccc([C@H](O)CO)n3)cc2C1` [Compound 100, (S)-1-(7-(6-(1,2-dihydroxyethyl)pyridin-2-yl)-1-(4-(trifluoromethyl)phenyl)-1,2,3,5-tetrahydro-4H-benzo[e][1,4]diazepin-4-yl)-2-(dimethylamino)ethan-1-one], the IC50 was found to be 7.07 ± 1.45 µM. Take `NC(=O)c1cc([C@H](O)CO)cc(-c2ccc3c(c2)CN(CC2CC2)CCN3c2ccc(C(F)(F)F)cc2)n1` [Compound 122, (S)-6-(4-(cyclopropylmethyl)-1-(4-(trifluoromethyl)phenyl)-2,3,4,5-tetrahydro-1H-benzo[e][1,4]diazepin-7-yl)-4-(1,2-dihydroxyethyl)-picolinamide]: the half-inhibitory concentration (IC50) amounted to 7.21 ± 0.341 µM. For the compound `CCN(CC)C(=O)N1CCN(c2ccc(C(F)(F)F)cc2)c2ccc(-c3cccc(C(N)=O)n3)cc2C1` [Compound 92, 7-(6-carbamoylpyridin-2-yl)-N,N-diethyl-1-(4-(trifluoromethyl)phenyl)-1,2,3,5-tetrahydro-4H-benzo[e][1,4]diazepino-4-carboxamide], the IC50 amounted to 0.813 ± 0.057 µM. For the compound `OC[C@@H](O)c1cccc(-c2ccc3c(c2)CCCCN3C2CCCCC2)n1` [Compound 73, (S)-1-(6-(1-cyclohexyl-2,3,4,5-tetrahydro-1H-benzo[b]azepin-7-yl)pyridin-2-yl)ethane-1,2-diol], the IC50 was determined as 0.331 ± 0.031 µM. Turning to `C[C@H](Nc1cc(C(N)=O)nc(-c2ccc3c(c2)CN(CC2CC2)CCN3c2ccc(C(F)(F)F)cc2)n1)C(N)=O` [Compound 89, (S)-6-((1-amino-1-oxopropan-2-yl)amino)-2-(4-(cyclopropylmethyl)-1-(4-(trifluoromethyl)phenyl)-2,3,4,5-tetrahydro-1H-benzo[e][1,4]diazepin-7-yl)pyrimidine-4-carboxamide], the IC50 is more than 20 µM. Same read-out and setting: next, `NC(=O)c1cc(-c2ccc3c(c2)CN(CC2CC2)CCN3c2ccc(C(F)(F)F)cc2)cc([C@H](O)CO)n1` [Compound 123, (S)-4-(4-(cyclopropylmethyl)-1-(4-(trifluoromethyl)phenyl)-2,3,4,5-tetrahydro-1H-benzo[e][1,4]diazepin-7-yl)-6-(1,2-dihydroxyethyl)-picolinamide]: 9.61 ± 0.339 µM.

As to `NC(=O)[C@H](O)[C@@H](O)c1cccc(-c2ccc3c(c2)OCCCN3c2ccc(C(F)(F)F)cc2)n1` [Compound 83, (2R,3S)-2,3-dihydroxy-3-(6-(5-(4-(trifluoromethyl)phenyl)-2,3,4,5-tetrahydrobenzo[b][1,4]-oxazepin-8-yl)pyridin-2-yl)propanamide], the IC50 was determined as 0.213 ± 0.013 µM.
